Columns and labels:
Type in all cases: in vivo
[1] = tested on: STING; assay: STING mRNA expression in kidneys of young and old mice (Example 1); details: kidneys of 21-month-old mice; 25 mg/kg body weight/day intraperitoneally for eight weeks; FIG. 1A
Method: (§1) FIGS. 1A-1B show mRNA expression of STING (FIG. 1A) and cyclic guanosine monophosphate-adenosine monophosphate (cyclic GMP-AMP) synthase (cGAS) (FIG. 1B) in the kidneys of 4-month old (“young”) and 21-month-old (“old”) mice, in which a cohort of mice were administered a pan estrogen-related receptor (ERR) agonist, as described in Example 1.
(§2) A study was conducted to evaluate STING and cGAS under inflammatory conditions.
(§3) In one aspect of the study, mRNA expression and protein levels of STING and cGAS were assessed in kidneys of mice that are 4 months old (young) and kidneys of mice that are 21 months old (aged and marked by inflammation).
(§4) In a second aspect of the study, 4-month-old mice and 21-month-old mice were treated with a pan ERR agonist, SLU-PP-332 (25 mg/kg body weight/day, administered intraperitoneally, for eight weeks).

[2] = tested on: cGAS; assay: cGAS protein levels (immunoblot) in kidneys of young and old mice (Example 1); details: kidneys of 21-month-old mice; 25 mg/kg body weight/day intraperitoneally for eight weeks; FIGS. 2C and 2D
Method: (§5) FIGS. 2A-2D show STING protein levels presented as an immunoblot (FIG. 2A) and quantified (FIG. 2B), and cGAS protein levels presented as an immunoblot (FIG. 2C) and quantified (FIG. 2D), in the kidneys of 4-month old (“young”) and 21-month-old (“old”) mice, in which a cohort of mice were administered a pan ERR agonist, as described in Example 1.
as §2, §3, §4

[3] = tested on: cGAS; assay: cGAS mRNA expression in kidneys of young and old mice (Example 1); details: kidneys of 21-month-old mice; 25 mg/kg body weight/day intraperitoneally for eight weeks; FIG. 1B
Method: as §1, §2, §3, §4

[4] = tested on: STING; assay: STING protein levels (immunoblot) in kidneys of young and old mice (Example 1); details: kidneys of 21-month-old mice; 25 mg/kg body weight/day intraperitoneally for eight weeks; FIGS. 2A and 2B
Method: as §5, §2, §3, §4

[5] = tested on: p21; assay: p21 mRNA expression in kidneys of old mice (Example 2); details: kidneys of 21-month-old mice; 1 mg/kg body weight/day intraperitoneally for three weeks; FIG. 3D
Method: (§6) FIGS. 3A-3F show mRNA expression of peroxisome proliferator-activated receptor-gamma coactivator (PGC)-1α (PGC-1α) (FIG. 3A), PGC-1β (FIG. 3B), ERR-alpha (ERRα) (FIG. 3C), p21 (FIG. 3D), interleukin (IL)-1β (FIG. 3E), and signal transducer and activator of transcription 3 (Stat3) (FIG. 3F) in the kidneys of 4-month old (“young”) and 21-month-old (“old”) mice, in which a cohort of old mice were administered a STING inhibitor (“SI”), C-176, as described in Example 2.
(§7) A study was conducted to evaluate expression levels of various markers and cytokines under inflammatory conditions, and the impact of administering a STING inhibitor on expression and protein levels.
(§8) In one aspect of the study, mRNA expression levels of PGC-1α, PGC-1β, ERRα, p21, IL-1β, and Stat3 were examined in kidneys of mice that are 4 months old (young) and kidneys of mice that are 21 months old (aged and marked by inflammation).
(§9) In a second aspect of the study, an inhibitor of STING, C-176, was administered (1 mg/kg body weight/day, administered intraperitoneally, for three weeks) to the 21-month-old mice.

[6] = tested on: p-IRF3; assay: p-IRF3 protein levels in kidneys of db/db mice (Example 3); details: kidneys of 4-month-old db/db mice; 1 mg/kg body weight/day intraperitoneally for eight weeks; FIG. 6C
Method: (§10) FIGS. 6A-6C show p-Stat3 protein levels presented as an immunoblot (FIG. 6A) and quantified (FIG. 6B), and protein levels of phospho-interferon regulatory factor (p-IRF) (FIG. 6C) in the kidneys of […] diabetic mice (“db/db”) and non-diabetic mice (“db/m”) mice, in which a cohort of the mice were administered STING inhibitor C-176, as described in Example 3.
(§11) A study was conducted to evaluate mRNA expression and protein levels of various markers and cytokines in kidneys of 4-month-old db/db mice, which is a model of type 2 diabetes due to a deficiency in leptin receptor activity, and in 4-month-old db/m mice, which are nondiabetic controls; and the effects of administering STING inhibitor C-176 (1 mg/kg body weight/day, administered intraperitoneally, for eight weeks) to these mice.

[7] = tested on: PGC-1β; assay: PGC-1β mRNA expression in kidneys of old mice (Example 2); details: kidneys of 21-month-old mice; 1 mg/kg body weight/day intraperitoneally for three weeks; FIG. 3B
Method: as §6, §7, §8, §9

[8] = tested on: Stat3; assay: Stat3 protein levels (immunoblot) in kidneys of old mice (Example 2); details: kidneys of 21-month-old mice; 1 mg/kg body weight/day intraperitoneally for three weeks; FIGS. 4C and 4D
Method: (§12) FIGS. 4A-4D show PGC-1α protein levels presented as an immunoblot (FIG. 4A) and quantified (FIG. 4B), and p-Stat3 protein levels presented as an immunoblot (FIG. 4C) and quantified (FIG. 4D), in the kidneys of 4-month old (“young”) and 21-month-old (“old”) mice, in which a cohort of the old mice were administered a STING inhibitor (“SI”), C-176, as described in Example 2.
as §7, §9

[9] = tested on: p-Stat3; assay: p-Stat3 protein levels in kidneys of db/db mice (Example 3); details: kidneys of 4-month-old db/db mice; 1 mg/kg body weight/day intraperitoneally for eight weeks; FIGS. 6A and 6B
Method: as §10, §11

[10] = tested on: PGC-1α; assay: PGC-1α protein levels (immunoblot) in kidneys of old mice (Example 2); details: kidneys of 21-month-old mice; 1 mg/kg body weight/day intraperitoneally for three weeks; FIGS. 4A and 4B
Method: as §12, §7, §9

[11] = tested on: Stat3; assay: Stat3 mRNA expression in kidneys of old mice (Example 2); details: kidneys of 21-month-old mice; 1 mg/kg body weight/day intraperitoneally for three weeks; FIG. 3F
Method: as §6, §7, §8, §9

[12] = tested on: ERRα; assay: ERRα mRNA expression in kidneys of old mice (Example 2); details: kidneys of 21-month-old mice; 1 mg/kg body weight/day intraperitoneally for three weeks; FIG. 3C
Method: as §6, §7, §8, §9

[13] = tested on: IL-1β; assay: IL-1β mRNA expression in kidneys of old mice (Example 2); details: kidneys of 21-month-old mice; 1 mg/kg body weight/day intraperitoneally for three weeks; FIG. 3E
Method: as §6, §7, §8, §9

[14] = tested on: IL-1β; assay: IL-1β mRNA expression in kidneys of db/db mice (Example 3); details: kidneys of 4-month-old db/db mice; 1 mg/kg body weight/day intraperitoneally for eight weeks; FIG. 5
Method: as §11

[15] = tested on: inflammation in the kidneys of diabetic mice; assay: Inflammation in the kidneys of diabetic mice (Example 3); details: db/db mice; 1 mg/kg body weight/day intraperitoneally for eight weeks
Method: as §11

[16] = tested on: PGC-1α; assay: PGC-1α mRNA expression in kidneys of old mice (Example 2); details: kidneys of 21-month-old mice; 1 mg/kg body weight/day intraperitoneally for three weeks; FIG. 3A
Method: as §6, §7, §8, §9

| SMILES | mRNA expression of STING [1] | protein levels of cGAS [2] | mRNA expression of cGAS [3] | protein levels of STING [4] | mRNA expression of p21 [5] | p-IRF3 levels [6] | mRNA expression of PGC-1β [7] | protein levels of Stat3 [8] | p-Stat3 levels [9] | protein levels of PGC-1α [10] | mRNA expression of Stat3 [11] | mRNA expression of ERRα [12] | mRNA expression of IL-1β [13] | mRNA expression of IL-1β (activation of IL-1β) [14] | inflammation in the kidneys of diabetic mice [15] | mRNA expression of PGC-1α [16] |
| --- | --- | --- | --- | --- | --- | --- | --- | --- | --- | --- | --- | --- | --- | --- | --- | --- |
| O=C(N/N=C/c1ccc2ccccc2c1)c1ccc(O)cc1 [SLU-PP-332] | significantly reversed the increase | significantly reversed the increase | significantly reversed the increase | significantly reversed the increase |  |  |  |  |  |  |  |  |  |  |  |  |
| O=C(Nc1ccc(I)cc1)c1ccc([N+](=O)[O-])o1 [C-176, N-(4-iodophenyl)-5-nitro-2-furancarboxamide] |  |  |  |  | reversed the increase | reversed the increase | reversed the decrease | reversed the increase | reversed the increase | reversed the decrease | reversed the increase | reversed the decrease | reversed the increase | reversed the activation | decreases inflammation | reversed the decrease |

Reference: patent US20230201187A1, “USE OF NAD+ PRECURSORS, STING INHIBITORS, AND FXR AGONISTS FOR INHIBITING SARS-COV-2 (COVID-19)-INDUCED CYTOKINE RELEASE” (Georgetown University, priority 2020, published 2023)
